The record followed here is ChEMBL document CHEMBL6087456 (J Med Chem, 2025).

Calls of active or inactive are those of the source. The calls are words filed in the database; no cut-off is given here. Where only a bound is given, the exact number is not on record here.

Data set [1] concerns the target T1, Dihydroorotate dehydrogenase (quinone), mitochondrial (Plasmodium falciparum (isolate 3D7), UniProt Q08210).
T1 sequence (Q08210 whole entry): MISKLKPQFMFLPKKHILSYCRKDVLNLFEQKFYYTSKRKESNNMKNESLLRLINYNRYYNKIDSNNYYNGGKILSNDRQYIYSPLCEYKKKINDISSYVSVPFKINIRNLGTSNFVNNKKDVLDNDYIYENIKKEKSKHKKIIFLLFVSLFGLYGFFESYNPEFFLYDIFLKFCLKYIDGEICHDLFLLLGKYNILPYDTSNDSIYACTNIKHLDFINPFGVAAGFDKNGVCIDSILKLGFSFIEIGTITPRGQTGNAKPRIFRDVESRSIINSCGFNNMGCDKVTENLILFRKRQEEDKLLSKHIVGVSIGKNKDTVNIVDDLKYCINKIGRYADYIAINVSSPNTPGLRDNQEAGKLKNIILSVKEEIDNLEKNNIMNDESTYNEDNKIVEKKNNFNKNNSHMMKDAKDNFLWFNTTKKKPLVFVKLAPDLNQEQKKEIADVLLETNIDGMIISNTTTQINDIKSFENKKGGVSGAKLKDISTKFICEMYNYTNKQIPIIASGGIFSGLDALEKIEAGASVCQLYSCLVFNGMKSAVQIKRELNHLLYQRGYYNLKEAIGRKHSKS
Nature of the data set: Inhibition of N-terminal His6-tagged recombinant Plasmodium falciparum DHODH (158 to 569 residues) N-terminally truncated soluble domain extracted from Escherichia coli phage resistant BL21-DE3 using CoQD/DHA/DCIP as substrates.

The nature of data set [2]: Metabolic stability in human liver microsomes assessed as intrinsic clearance at 0.5 uM incubated for 60 mins in presence of NADPH by tandem quadrupole-Time of Flight MS. The format is ADME, Microsome. The following applies: 1 h. Background: Liver microsomes are a subcellular fraction often used to study metabolism.
Data set [3] is described as follows: Cytotoxicity against human Jurkat cells by Cell Titer Glo assay. Format: toxicity, cell-based.
The nature of data set [4]: Plasma protein binding in human measured for 6 hrs by rapid equilibrium dialysis. Format: ADME, cell-free.
Data set [5] in a line: Protein binding in human hepatocytes. Format: ADME, cell-based, Hepatocyte. The following applies: read-out: PB (converted).
Data set [6] can be described thus: Oral absorption in overnight-fasted male Sprague-Dawley rat at 3 mg/kg measured upto 72 hrs by LCMS analysis. The note with it: in vivo. The format is ADME, organism-based.
Data set [7] has as its target T2, Cytochrome P450 1A2 (Homo sapiens, UniProt P05177).
T2 sequence (P05177 whole entry): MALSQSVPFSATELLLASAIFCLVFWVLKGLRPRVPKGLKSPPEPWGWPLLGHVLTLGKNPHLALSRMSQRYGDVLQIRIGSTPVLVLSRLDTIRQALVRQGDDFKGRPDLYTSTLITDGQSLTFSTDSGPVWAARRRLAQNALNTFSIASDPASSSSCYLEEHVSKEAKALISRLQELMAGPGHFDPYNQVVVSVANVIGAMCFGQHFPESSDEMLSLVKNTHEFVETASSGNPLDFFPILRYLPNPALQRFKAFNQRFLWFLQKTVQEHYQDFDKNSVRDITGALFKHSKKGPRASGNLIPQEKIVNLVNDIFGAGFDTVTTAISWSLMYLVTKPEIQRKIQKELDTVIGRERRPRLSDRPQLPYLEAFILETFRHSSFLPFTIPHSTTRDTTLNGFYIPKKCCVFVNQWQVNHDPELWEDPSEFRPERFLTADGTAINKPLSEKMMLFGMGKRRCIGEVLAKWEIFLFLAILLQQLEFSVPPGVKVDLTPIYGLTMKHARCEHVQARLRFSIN
Nature of the data set: Inhibition of CYP1A2 in human liver microsomes. Format: ADME, Microsome.

The target in data set [8] is T3, Cytochrome P450 2B6 (Homo sapiens, UniProt P20813).
T3 sequence (P20813 whole entry): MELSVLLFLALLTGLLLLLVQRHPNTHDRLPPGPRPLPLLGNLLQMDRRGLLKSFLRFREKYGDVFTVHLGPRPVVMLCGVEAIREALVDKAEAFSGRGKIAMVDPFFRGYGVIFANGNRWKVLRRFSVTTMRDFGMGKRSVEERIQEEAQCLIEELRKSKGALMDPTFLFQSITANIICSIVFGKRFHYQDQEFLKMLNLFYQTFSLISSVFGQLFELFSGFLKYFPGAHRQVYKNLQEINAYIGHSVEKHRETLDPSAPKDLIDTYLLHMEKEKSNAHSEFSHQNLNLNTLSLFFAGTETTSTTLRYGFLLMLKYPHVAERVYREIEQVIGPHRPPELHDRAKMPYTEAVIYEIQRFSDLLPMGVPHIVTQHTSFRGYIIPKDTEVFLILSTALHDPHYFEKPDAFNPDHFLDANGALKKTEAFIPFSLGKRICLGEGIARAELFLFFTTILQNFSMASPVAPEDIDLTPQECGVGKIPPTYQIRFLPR
Nature of the data set: Time-dependent inhibition of CYP2B6 in human liver microsomes. The format is ADME, Microsome.

Data set [9] has as its target T4, Cytochrome P450 2C8 (Homo sapiens, UniProt P10632).
T4 sequence (P10632 whole entry): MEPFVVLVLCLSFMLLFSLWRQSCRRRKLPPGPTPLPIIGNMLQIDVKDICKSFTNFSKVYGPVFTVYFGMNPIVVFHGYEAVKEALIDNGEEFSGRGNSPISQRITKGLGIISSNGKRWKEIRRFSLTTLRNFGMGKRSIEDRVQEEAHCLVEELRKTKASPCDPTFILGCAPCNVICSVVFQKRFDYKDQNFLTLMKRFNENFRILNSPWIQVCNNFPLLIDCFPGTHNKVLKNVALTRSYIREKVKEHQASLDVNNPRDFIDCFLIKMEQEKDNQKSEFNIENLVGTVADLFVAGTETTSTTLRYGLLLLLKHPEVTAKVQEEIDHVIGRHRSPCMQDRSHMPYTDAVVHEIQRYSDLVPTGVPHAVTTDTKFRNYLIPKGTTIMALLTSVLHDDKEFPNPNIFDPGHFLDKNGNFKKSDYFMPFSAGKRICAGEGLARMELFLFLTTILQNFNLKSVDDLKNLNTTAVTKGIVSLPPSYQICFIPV
The data set is described as follows: Time-dependent inhibition of CYP2C8 in human liver microsomes. The format is ADME, Microsome.

Data set [10] deals with Voltage-gated inwardly rectifying potassium channel KCNH2 (Homo sapiens, UniProt Q12809). The data set is described as follows: Inhibition of hERG expressed in CHO cells by whole-cell patch-clamp assay. The format is toxicity, cell-based.
In data set [11] the test system is Plasmodium falciparum. The data set is described as follows: Antimalarial activity against erythrocyte asexual stage Plasmodium falciparum 3D7 0087/N9 infected in humanized SCID mouse model at 1 to 30 mg/kg administered once daily for 6 days measured on day 9. The following applies: dose 1-30 mg/kg, time 6.0 day. The format is functional, organism-based.

Chain of Voltage-gated inwardly rectifying potassium channel KCNH2 (Q12809 whole entry): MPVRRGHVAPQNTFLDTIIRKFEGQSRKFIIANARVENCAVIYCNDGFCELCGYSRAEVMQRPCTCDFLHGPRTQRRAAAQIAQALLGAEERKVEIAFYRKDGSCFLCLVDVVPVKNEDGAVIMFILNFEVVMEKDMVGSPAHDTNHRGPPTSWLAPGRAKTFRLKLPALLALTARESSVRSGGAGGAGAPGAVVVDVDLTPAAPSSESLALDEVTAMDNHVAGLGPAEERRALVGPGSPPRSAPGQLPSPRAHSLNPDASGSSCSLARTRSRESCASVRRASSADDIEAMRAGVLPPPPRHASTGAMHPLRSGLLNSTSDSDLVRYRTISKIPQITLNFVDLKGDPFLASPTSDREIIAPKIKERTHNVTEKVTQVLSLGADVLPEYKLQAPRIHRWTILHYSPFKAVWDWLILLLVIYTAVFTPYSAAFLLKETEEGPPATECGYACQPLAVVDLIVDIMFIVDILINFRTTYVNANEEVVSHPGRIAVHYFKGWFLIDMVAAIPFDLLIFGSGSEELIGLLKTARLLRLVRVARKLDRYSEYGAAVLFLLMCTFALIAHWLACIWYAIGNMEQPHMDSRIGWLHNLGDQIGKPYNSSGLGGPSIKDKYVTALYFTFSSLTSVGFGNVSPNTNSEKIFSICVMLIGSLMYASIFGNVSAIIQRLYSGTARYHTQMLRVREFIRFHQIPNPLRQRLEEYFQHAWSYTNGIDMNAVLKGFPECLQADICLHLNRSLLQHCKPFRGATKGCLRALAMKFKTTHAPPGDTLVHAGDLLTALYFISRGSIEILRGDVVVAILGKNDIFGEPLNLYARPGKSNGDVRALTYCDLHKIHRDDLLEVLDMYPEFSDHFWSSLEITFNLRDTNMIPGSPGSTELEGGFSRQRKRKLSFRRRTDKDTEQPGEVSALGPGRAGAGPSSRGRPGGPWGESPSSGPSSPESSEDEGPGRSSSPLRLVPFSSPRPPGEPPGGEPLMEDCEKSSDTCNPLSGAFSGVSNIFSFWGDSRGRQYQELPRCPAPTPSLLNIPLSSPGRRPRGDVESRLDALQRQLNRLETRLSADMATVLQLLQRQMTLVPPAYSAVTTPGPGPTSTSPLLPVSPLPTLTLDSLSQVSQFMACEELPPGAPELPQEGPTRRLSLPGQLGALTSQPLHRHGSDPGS

As a reminder, the IC50 is the concentration that gives 50% inhibition. The term CC50 denotes the concentration at which the toxic effect on the cells reaches its halfway point. High values mean lower toxicity to the cells, low ones greater toxicity to the cells. The EC50 is the midpoint of the concentration-response curve. High values mean lower potency in that assay, low ones higher potency in that assay. For `Cn1nc2c(=O)n(C3CC3)cnc2c1[C@](O)(c1cnc(C(F)(F)F)c(Cl)c1)C(F)(F)F`, the results for the IC50 in data set [1] and in data set [7] were 0.015 µM and above 20 µM, respectively. Moreover, the “intrinsic clearance (CLint)” value in [2] was below 3 µL/min/mg. Further, the CC50 in [3] is above 20 µM. The compound also gave a PPB in data set [4] of 98.9%. Besides, the fraction unbound in data set [5] was 0.535. The compound further gave a Fa at 72 h in data set [6] of 100%. The TDI entry in data set [8] and in [9] was “Not_active” throughout. This compound yielded a concentration for a half-maximal effect (EC50) in [10] of around 50 µM. Further, the result in data set [11] was Active.
